Data as given in a compilation of properties of binary mixtures (doi:10.1021/jp403813g).

Assay: xn = mol fraction of the nth substance listed
Conditions: 100 kPa

CC[n+]1ccn(C)c1.[Cl-] + CS(C)=O
speed of sound [m/s]
Conditions | 298.15 K | 303.15 K | 308.15 K | 313.15 K
x1 = 0.0194 | – | – | 1473 | 1455
x1 = 0.0453 | 1517 | – | 1485 | –
x1 = 0.0677 | 1532 | 1509 | 1498 | 1480
x1 = 0.0984 | 1551 | 1527 | 1516 | –
x1 = 0.1236 | 1563 | 1539 | 1527 | 1508
x1 = 0.1619 | 1582 | 1560 | 1547 | 1528
x1 = 0.2143 | – | 1583 | 1571 | 1550
x1 = 0.2927 | – | – | – | 1586
x1 = 0.3737 | 1675 | 1652 | 1638 | 1618
x1 = 0.4429 | 1701 | 1678 | 1665 | 1645
x1 = 0.5264 | 1730 | 1709 | 1694 | 1675
x1 = 0.6072 | – | 1736 | 1723 | 1705
x1 = 0.7477 | – | 1787 | 1776 | 1758
x1 = 0.7986 | 1828 | 1812 | 1801 | 1783
x1 = 0.8501 | – | 1833 | 1822 | 1804
x1 = 0.8944 | 1869 | 1855 | 1843 | 1826
x1 = 0.9396 | 1893 | 1880 | 1869 | 1854
x1 = 0.9694 | 1910 | 1894 | 1883 | 1868
x1 = 1 | 1935 | 1923 | 1918 | 1894
x2 = 0.0071 | 1929 | 1914 | 1903 | 1887

CS(C)=O + CCCC[n+]1ccn(C)c1.[Cl-]
Conditions | speed of sound [m/s]
313.15 K, x2 = 0 | 1442

CCCC[n+]1ccn(C)c1.[Cl-] + CS(C)=O
313.15 K
Conditions | speed of sound [m/s]
x1 = 0.0341 | 1491
x1 = 0.1122 | 1569
x1 = 0.2433 | 1650
x1 = 0.3032 | 1674
x1 = 0.3705 | 1696
x1 = 0.4746 | 1732
x1 = 0.5997 | 1773
x1 = 0.7115 | 1794
x1 = 0.843 | 1816
x1 = 0.9445 | 1829

CS(C)=O + CC[n+]1ccn(C)c1.[Cl-]
x2 = 0
Conditions | speed of sound [m/s]
298.15 K | 1496
303.15 K | 1472
